Assay results as given in patent US20250122219A1 (priority 2023, published 2025).
Where two headings read alike, the source gives them in different places.

Legend:
[1] = Cytotoxicity assay in MT-4 cells; type: cell-based; settings: human; uninfected MT-4 cells, 5 days incubation, Cell Titer Glo; read-out: MT4 CC50
In short: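 Uninfected MT-4 cells exposed to serially diluted compounds in RPMI with 10% FBS for 5 days at 37 °C. Viability by Cell Titer Glo chemiluminescence. Puromycin […] as baseline cytotoxicity control.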

HIV-1 (IIIB) = assay: Antiviral assay in MT-4 cells; type: cell-based
In short: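 HIV-1 IIIB-infected MT-4 cells (fresh 1:250 virus stock dilution; mock-infected controls) incubated 5 days at 37 °C with serially diluted compounds in RPMI/10% FBS; 5 μM AZT as positive control. Cell viability read by CellTiter-Glo luminescence as measure of protection from viral replication.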

[2] = Human immunodeficiency virus 1, MT4, 120 h, HIV-1 IIIB in MT-4 cells, 5 days incubation, Cell Titer Glo, read-out: MT4 EC50
[3] = Human immunodeficiency virus 1, IIIB, MT4, 120 h, read-out: MT4 EC50 (nM)

EC50 (HIV-1 (IIIB); [2]) [nM] | SMILES | CC50 at 5 days [1] [µM] | EC50 (HIV-1 (IIIB); [3]) [nM]
0.539 | COC1=NO[C@@]2(CC[C@H](C)N3C[C@H]2n2cc(C(=O)NCc4ccc(F)cc4F)c(=O)c(OC(=O)CCCC(C)C)c2C3=O)C1 [Example 60, (3′S,5S,7′R)-10′-((2,4-difluorobenzyl)carbamoyl)-3-methoxy-3′-methyl-1′,11′-dioxo-1′,4′,5′,11′-tetrahydro-3′H,4H,7′H-spiro[isoxazole-5,6′-[2,7]methanopyrido[1,2-a][1,4]diazonin]-12′-yl 5-methylhexanoate] | 21 | –
0.733 | CC1=NO[C@@]2(CC[C@H](C)N3C[C@H]2n2cc(C(=O)NCc4ccc(F)cc4F)c(=O)c(OC(=O)CCCC(C)C)c2C3=O)C1 [Example 61, (3′S,5S,7′R)-10′-((2,4-difluorobenzyl)carbamoyl)-3,3′-dimethyl-1′,11′-dioxo-1′,4′,5′,11′-tetrahydro-3′H,4H,7′H-spiro[isoxazole-5,6′-[2,7]methanopyrido[1,2-a][1,4]diazonin]-12′-yl 5-methylhexanoate] | 20.6 | –
2.48 | COC1=NO[C@@]2(CC[C@H](C)N3C[C@H]2n2cc(C(=O)NCc4ccc(F)cc4F)c(=O)c(OC(=O)CCCCCC(C)C)c2C3=O)C1 [Example 64, (3′S,5S,7′R)-10′-((2,4-difluorobenzyl)carbamoyl)-3-methoxy-3′-methyl-1′,11′-dioxo-1′,4′,5′,11′-tetrahydro-3′H,4H,7′H-spiro[isoxazole-5,6′-[2,7]methanopyrido[1,2-a][1,4]diazonin]-12′-yl 7-methyloctanoate] | 38.1 | –
3.01 | CC1=NO[C@@]2(CC[C@H](C)N3C[C@H]2n2cc(C(=O)NCc4ccc(F)cc4F)c(=O)c(OC(=O)CCCCCC(C)C)c2C3=O)C1 [Example 65, (3′S,5S,7′R)-10′-((2,4-difluorobenzyl)carbamoyl)-3,3′-dimethyl-1′,11′-dioxo-1′,4′,5′,11′-tetrahydro-3′H,4H,7′H-spiro[isoxazole-5,6′-[2,7]methanopyrido[1,2-a][1,4]diazonin]-12′-yl 7-methyloctanoate] | 21.8 | –
0.316 | COC1=NO[C@@]2(CC[C@H](C)N3C[C@H]2n2cc(C(=O)NCc4ccc(F)cc4F)c(=O)c(OC(=O)CCCCCCC(C)C)c2C3=O)C1 [Example 66, (3′S,5S,7′R)-10′-((2,4-difluorobenzyl)carbamoyl)-3-methoxy-3′-methyl-1′,11′-dioxo-1′,4′,5′,11′-tetrahydro-3′H,4H,7′H-spiro[isoxazole-5,6′-[2,7]methanopyrido[1,2-a][1,4]diazonin]-12′-yl 8-methylnonanoate] | 22.3 | –
0.196 | CC1=NO[C@@]2(CC[C@H](C)N3C[C@H]2n2cc(C(=O)NCc4ccc(F)cc4F)c(=O)c(OC(=O)CCCCCCC(C)C)c2C3=O)C1 [Example 67, (3′S,5S,7′R)-10′-((2,4-difluorobenzyl)carbamoyl)-3,3′-dimethyl-1′,11′-dioxo-1′,4′,5′,11′-tetrahydro-3′H,4H,7′H-spiro[isoxazole-5,6′-[2,7]methanopyrido[1,2-a][1,4]diazonin]-12′-yl 8-methylnonanoate] | 18.9 | –
1.09 | CC/C=C\C/C=C\C/C=C\C/C=C\C/C=C\CCCC(=O)Oc1c2n(cc(C(=O)NCc3ccc(F)cc3F)c1=O)[C@@H]1CN(C2=O)[C@@H](C)CC[C@]12CC(C)=NO2 [Example 68, (3′S,5S,7′R)-10′-((2,4-difluorobenzyl)carbamoyl)-3,3′-dimethyl-1′,11′-dioxo-1′,4′,5′,11′-tetrahydro-3′H,4H,7′H-spiro[isoxazole-5,6′-[2,7]methanopyrido[1,2-a][1,4]diazonin]-12′-yl (5Z,8Z,11Z,14Z,17Z)-icosa-5,8,11,14,17-pentaenoate] | 16.5 | –
0.54 | CC/C=C\C/C=C\C/C=C\C/C=C\C/C=C\CCCC(=O)Oc1c2n(cc(C(=O)NCc3ccc(F)cc3F)c1=O)[C@@H]1CN(C2=O)[C@@H](C)CC[C@]12CC(OC)=NO2 [Example 69, (3′S,5S,7′R)-10′-((2,4-difluorobenzyl)carbamoyl)-3-methoxy-3′-methyl-1′,11′-dioxo-1′,4′,5′,11′-tetrahydro-3′H,4H,7′H-spiro[isoxazole-5,6′-[2,7]methanopyrido[1,2-a][1,4]diazonin]-12′-yl (5Z,8Z,11Z,14Z,17Z)-icosa-5,8,11,14,17-pentaenoate] | 42.2 | –
1.02 | COCCCCCC(=O)Oc1c2n(cc(C(=O)NCc3ccc(F)cc3F)c1=O)[C@@H]1CN(C2=O)[C@@H](C)CC[C@]12CC(OC)=NO2 [Example 70, (3′S,5S,7′R)-10′-((2,4-difluorobenzyl)carbamoyl)-3-methoxy-3′-methyl-1′,11′-dioxo-1′,4′,5′,11′-tetrahydro-3′H,4H,7′H-spiro[isoxazole-5,6′-[2,7]methanopyrido[1,2-a][1,4]diazonin]-12′-yl 6-methoxyhexanoate] | 17.6 | –
1.79 | COCCCCCC(=O)Oc1c2n(cc(C(=O)NCc3ccc(F)cc3F)c1=O)[C@@H]1CN(C2=O)[C@@H](C)CC[C@]12CC(C)=NO2 [Example 71, (3′S,5S,7′R)-10′-((2,4-difluorobenzyl)carbamoyl)-3,3′-dimethyl-1′,11′-dioxo-1′,4′,5′,11′-tetrahydro-3′H,4H,7′H-spiro[isoxazole-5,6′-[2,7]methanopyrido[1,2-a][1,4]diazonin]-12′-yl 6-methoxyhexanoate] | 19.5 | –
0.797 | COC1=NO[C@@]2(CC[C@H](C)N3C[C@H]2n2cc(C(=O)NCc4ccc(F)cc4F)c(=O)c(OC(=O)CCCC(=O)O)c2C3=O)C1 [Example 73, 5-(((3′S,5S,7′R)-10′-((2,4-difluorobenzyl)carbamoyl)-3-methoxy-3′-methyl-1′,11′-dioxo-1′,4′,5′,11′-tetrahydro-3′H,4H,7′H-spiro[isoxazole-5,6′-[2,7]methanopyrido[1,2-a][1,4]diazonin]-12′-yl)oxy)-5-oxopentanoic acid] | 20.2 | –
– | CC1=NO[C@@]2(CC[C@H](C)N3C[C@H]2n2cc(C(=O)NCc4ccc(F)cc4F)c(=O)c(OC(=O)/C=C/C(=O)O)c2C3=O)C1 [Example 75, (E)-4-(((3′S,5S,7′R)-10′-((2,4-difluorobenzyl)carbamoyl)-3,3′-dimethyl-1′,11′-dioxo-1′,4′,5′,11′-tetrahydro-3′H,4H,7′H-spiro[isoxazole-5,6′-[2,7]methanopyrido[1,2-a][1,4]diazonin]-12′-yl)oxy)-4-oxobut-2-enoic acid] | 16.1 | 1.6
0.518 | CC1=NO[C@@]2(CC[C@H](C)N3C[C@H]2n2cc(C(=O)NCc4ccc(F)cc4F)c(=O)c(OC(=O)CCCCCCCCCCCCCCCCC(=O)O)c2C3=O)C1 [Example 76, 18-(((3′S,5S,7′R)-10′-((2,4-difluorobenzyl)carbamoyl)-3,3′-dimethyl-1′,11′-dioxo-1′,4′,5′,11′-tetrahydro-3′H,4H,7′H-spiro[isoxazole-5,6′-[2,7]methanopyrido[1,2-a][1,4]diazonin]-12′-yl)oxy)-18-oxooctadecanoic acid] | 46 | –
0.658 | COC1=NO[C@@]2(CC[C@H](C)N3C[C@H]2n2cc(C(=O)NCc4ccc(F)cc4F)c(=O)c(OC(=O)CCCCCCCCCCCCCCCCC(=O)O)c2C3=O)C1 [Example 77, 18-(((3′S,5S,7′R)-10′-((2,4-difluorobenzyl)carbamoyl)-3-methoxy-3′-methyl-1′,11′-dioxo-1′,4′,5′,11′-tetrahydro-3′H,4H,7′H-spiro[isoxazole-5,6′-[2,7]methanopyrido[1,2-a][1,4]diazonin]-12′-yl)oxy)-18-oxooctadecanoic acid] | ≥ 50 | –
1.3 | COC(=O)N[C@H](C(=O)Oc1c2n(cc(C(=O)NCc3ccc(F)cc3F)c1=O)[C@@H]1CN(C2=O)[C@@H](C)CC[C@]12CC(OC)=NO2)C(C)C [Example 80] | 19.8 | –
1.44 | COC(=O)N[C@H](C(=O)Oc1c2n(cc(C(=O)NCc3ccc(F)cc3F)c1=O)[C@@H]1CN(C2=O)[C@@H](C)CC[C@]12CC(C)=NO2)C(C)C [Example 81] | 18.1 | –
– | COC1=NO[C@@]2(CC[C@H](C)N3C[C@H]2n2cc(C(=O)NCc4ccc(F)cc4F)c(=O)c(OCOC(=O)CCC(C)C)c2C3=O)C1 [Example 82, (((3′S,5S,7′R)-10′-((2,4-difluorobenzyl)carbamoyl)-3-methoxy-3′-methyl-1′,11′-dioxo-1′,4′,5′,11′-tetrahydro-3′H,4H,7′H-spiro[isoxazole-5,6′-[2,7]methanopyrido[1,2-a][1,4]diazonin]-12′-yl)oxy)methyl 4-methylpentanoate] | 17.3 | 2.52
2.69 | COC1=NO[C@@]2(CC[C@H](C)N3C[C@H]2n2cc(C(=O)NCc4ccc(F)cc4F)c(=O)c(OCOC(C)=O)c2C3=O)C1 [Example 83, (((3′S,5S,7′R)-10′-((2,4-difluorobenzyl)carbamoyl)-3-methoxy-3′-methyl-1′,11′-dioxo-1′,4′,5′,11′-tetrahydro-3′H,4H,7′H-spiro[isoxazole-5,6′-[2,7]methanopyrido[1,2-a][1,4]diazonin]-12′-yl)oxy)methyl acetate] | 16 | –
3.29 | CC(=O)OCOc1c2n(cc(C(=O)NCc3ccc(F)cc3F)c1=O)[C@@H]1CN(C2=O)[C@@H](C)CC[C@]12CC(C)=NO2 [Example 84, (((3′S,5S,7′R)-10′-((2,4-difluorobenzyl)carbamoyl)-3,3′-dimethyl-1′,11′-dioxo-1′,4′,5′,11′-tetrahydro-3′H,4H,7′H-spiro[isoxazole-5,6′-[2,7]methanopyrido[1,2-a][1,4]diazonin]-12′-yl)oxy)methyl acetate] | 19.9 | –
